Measured values taken from the CheMixHub viscosity set.

Assay: xn = mol fraction of the nth substance listed

CC#N + O
Settings | viscosity [mPa·s]
293.15 K, 101 kPa, x1 = 0.032 | 1.095
293.15 K, 101 kPa, x1 = 0.057 | 1.11
293.15 K, 101 kPa, x1 = 0.097 | 1.103
293.15 K, 101 kPa, x1 = 0.154 | 1.023
293.15 K, 101 kPa, x1 = 0.2 | 0.963
293.15 K, 101 kPa, x1 = 0.395 | 0.723
293.15 K, 101 kPa, x1 = 0.596 | 0.516
293.15 K, 101 kPa, x1 = 0.8 | 0.413
293.15 K, 101.33 kPa, x1 = 0.03 | 1.091
293.15 K, 101.33 kPa, x1 = 0.06 | 1.124
293.15 K, 101.33 kPa, x1 = 0.12 | 1.105
293.15 K, 101.33 kPa, x1 = 0.22 | 1.029
293.15 K, 101.33 kPa, x1 = 0.29 | 0.9338
293.15 K, 101.33 kPa, x1 = 0.37 | 0.7979
293.15 K, 101.33 kPa, x1 = 0.43 | 0.722
293.15 K, 101.33 kPa, x1 = 0.61 | 0.5948
293.15 K, 101.33 kPa, x1 = 0.7 | 0.5389
293.15 K, 101.33 kPa, x1 = 0.87 | 0.4657
298.15 K, 101 kPa, x1 = 0.046 | 0.867
298.15 K, 101 kPa, x1 = 0.1 | 0.862
298.15 K, 101 kPa, x1 = 0.2 | 0.858
298.15 K, 101 kPa, x2 = 0.2626 | 0.42
298.15 K, 101 kPa, x2 = 0.4466 | 0.517
298.15 K, 101 kPa, x2 = 0.4952 | 0.554
298.15 K, 101 kPa, x2 = 0.6032 | 0.651
298.15 K, 101 kPa, x2 = 0.613 | 0.66
298.15 K, 101 kPa, x2 = 0.6508 | 0.669
298.15 K, 101 kPa, x2 = 0.7029 | 0.754
298.15 K, 101 kPa, x2 = 0.7445 | 0.801
298.15 K, 101 kPa, x2 = 0.7543 | 0.815
298.15 K, 101.3 kPa, x1 = 0.025 | 0.9497
298.15 K, 101.3 kPa, x1 = 0.05 | 0.9779
298.15 K, 101.3 kPa, x1 = 0.075 | 0.9826
298.15 K, 101.3 kPa, x1 = 0.1 | 0.9704
298.15 K, 101.3 kPa, x1 = 0.2019 | 0.8706
298.15 K, 101.33 kPa, x2 = 0.1028 | 0.375
298.15 K, 101.33 kPa, x2 = 0.2071 | 0.402
298.15 K, 101.33 kPa, x2 = 0.297 | 0.436
298.15 K, 101.33 kPa, x2 = 0.4021 | 0.495
298.15 K, 101.33 kPa, x2 = 0.4985 | 0.563
298.15 K, 101.33 kPa, x2 = 0.6057 | 0.656
298.15 K, 101.33 kPa, x2 = 0.6987 | 0.75
298.15 K, 101.33 kPa, x2 = 0.7843 | 0.842
298.15 K, 101.33 kPa, x2 = 0.8773 | 0.94
303.15 K, 101 kPa, x1 = 0.032 | 0.861
303.15 K, 101 kPa, x1 = 0.0498 | 0.8684
303.15 K, 101 kPa, x1 = 0.057 | 0.872
303.15 K, 101 kPa, x1 = 0.065 | 0.8736
303.15 K, 101 kPa, x1 = 0.084 | 0.8728
303.15 K, 101 kPa, x1 = 0.097 | 0.868
303.15 K, 101 kPa, x1 = 0.1498 | 0.8314
303.15 K, 101 kPa, x1 = 0.154 | 0.815
303.15 K, 101 kPa, x1 = 0.2 | 0.774
303.15 K, 101 kPa, x1 = 0.2534 | 0.7376
303.15 K, 101 kPa, x1 = 0.3831 | 0.6065
303.15 K, 101 kPa, x1 = 0.395 | 0.607
303.15 K, 101 kPa, x1 = 0.5071 | 0.5088
303.15 K, 101 kPa, x1 = 0.596 | 0.449
303.15 K, 101 kPa, x1 = 0.6075 | 0.4532
303.15 K, 101 kPa, x1 = 0.7039 | 0.4039
303.15 K, 101 kPa, x1 = 0.8 | 0.372
303.15 K, 101 kPa, x1 = 0.8042 | 0.3676
303.15 K, 101 kPa, x1 = 0.894 | 0.3442
308.15 K, 101 kPa, x1 = 0.046 | 0.707
308.15 K, 101 kPa, x1 = 0.0498 | 0.7729
308.15 K, 101 kPa, x1 = 0.065 | 0.7826
308.15 K, 101 kPa, x1 = 0.084 | 0.7812
308.15 K, 101 kPa, x1 = 0.1 | 0.705
308.15 K, 101 kPa, x1 = 0.1498 | 0.7485
308.15 K, 101 kPa, x1 = 0.2 | 0.697
308.15 K, 101 kPa, x1 = 0.2534 | 0.67
308.15 K, 101 kPa, x1 = 0.3831 | 0.5596
308.15 K, 101 kPa, x1 = 0.5071 | 0.4711
308.15 K, 101 kPa, x1 = 0.6075 | 0.4236
308.15 K, 101 kPa, x1 = 0.7039 | 0.3804
308.15 K, 101 kPa, x1 = 0.8042 | 0.3486
308.15 K, 101 kPa, x1 = 0.894 | 0.3278
313.15 K, 101 kPa, x1 = 0.032 | 0.698
313.15 K, 101 kPa, x1 = 0.0498 | 0.6998
313.15 K, 101 kPa, x1 = 0.057 | 0.707
313.15 K, 101 kPa, x1 = 0.065 | 0.7058
313.15 K, 101 kPa, x1 = 0.084 | 0.7062
313.15 K, 101 kPa, x1 = 0.097 | 0.707
313.15 K, 101 kPa, x1 = 0.1498 | 0.6782
313.15 K, 101 kPa, x1 = 0.154 | 0.668
313.15 K, 101 kPa, x1 = 0.2 | 0.641
313.15 K, 101 kPa, x1 = 0.2534 | 0.612
313.15 K, 101 kPa, x1 = 0.3831 | 0.5157
313.15 K, 101 kPa, x1 = 0.395 | 0.516
313.15 K, 101 kPa, x1 = 0.5071 | 0.441
313.15 K, 101 kPa, x1 = 0.596 | 0.399
313.15 K, 101 kPa, x1 = 0.6075 | 0.3978
313.15 K, 101 kPa, x1 = 0.7039 | 0.3598
313.15 K, 101 kPa, x1 = 0.8 | 0.34
313.15 K, 101 kPa, x1 = 0.8042 | 0.3318
313.15 K, 101 kPa, x1 = 0.894 | 0.3132
318.15 K, 101 kPa, x1 = 0.046 | 0.584
318.15 K, 101 kPa, x1 = 0.0498 | 0.635
318.15 K, 101 kPa, x1 = 0.065 | 0.6402
318.15 K, 101 kPa, x1 = 0.084 | 0.6409
318.15 K, 101 kPa, x1 = 0.1 | 0.58
318.15 K, 101 kPa, x1 = 0.1498 | 0.6185
318.15 K, 101 kPa, x1 = 0.2 | 0.578
318.15 K, 101 kPa, x1 = 0.2534 | 0.5635
318.15 K, 101 kPa, x1 = 0.3831 | 0.4801
318.15 K, 101 kPa, x1 = 0.5071 | 0.4101
318.15 K, 101 kPa, x1 = 0.6075 | 0.3754
318.15 K, 101 kPa, x1 = 0.7039 | 0.3408
318.15 K, 101 kPa, x1 = 0.894 | 0.2996
323.15 K, 101 kPa, x1 = 0.032 | 0.579
323.15 K, 101 kPa, x1 = 0.0498 | 0.5802
323.15 K, 101 kPa, x1 = 0.057 | 0.587
323.15 K, 101 kPa, x1 = 0.097 | 0.589
323.15 K, 101 kPa, x1 = 0.154 | 0.561
323.15 K, 101 kPa, x1 = 0.2 | 0.54
323.15 K, 101 kPa, x1 = 0.395 | 0.447
323.15 K, 101 kPa, x1 = 0.596 | 0.356
323.15 K, 101 kPa, x1 = 0.8 | 0.312
